Experimental data taken from PubChem BioAssay (NCI).
Several values for one entry are separate records, joined by “and”; a condition that tells them apart may be missing. Equal entries are not always repeated.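 Growth conditions: 96-well plates. Treatment: test compound, 48 hours, 5 concentrations. Analysis: linear interpolation between bracketing concentrations; unreached endpoints set to highest concentration. The concentration for 50% growth inhibition is given as GI50. TGI: concentration producing complete growth inhibition.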

What was measured:
Assay in all cases: NCI-60 cell line screen, 48 h
ACHN renal = system: ACHN renal
COLO 205 colon = system: COLO 205 colon
HOP-62 NSCLC = system: HOP-62 NSCLC
HOP-92 NSCLC = system: HOP-92 NSCLC
LOX IMVI melanoma = system: LOX IMVI melanoma
NCI-H23 lung = system: NCI-H23 lung
RXF 393 renal = system: RXF 393 renal
SK-MEL-5 melanoma = system: SK-MEL-5 melanoma
SW-620 colon = system: SW-620 colon
UO-31 renal = system: UO-31 renal

Structure (SMILES)	GI50 (ACHN renal)	TGI (ACHN renal)	GI50 (COLO 205 colon)	TGI (COLO 205 colon)	GI50 (HOP-62 NSCLC)	TGI (HOP-62 NSCLC)	GI50 (HOP-92 NSCLC)	TGI (HOP-92 NSCLC)	GI50 (LOX IMVI melanoma)	TGI (LOX IMVI melanoma)	GI50 (NCI-H23 lung)	TGI (NCI-H23 lung)	GI50 (RXF 393 renal)	TGI (RXF 393 renal)	GI50 (SK-MEL-5 melanoma)	TGI (SK-MEL-5 melanoma)	GI50 (SW-620 colon)	TGI (SW-620 colon)	GI50 (UO-31 renal)	TGI (UO-31 renal)
Cc1ccc(S(=O)(=O)Nc2nc3ccccc3nc2Nc2ccc3nsnc3c2)cc1	4.01 µM and 3.75 µM	> 100 µM	5.81 µM and 9.83 µM	23.6 µM and > 100 µM	5.36 µM and 5.68 µM	35.6 µM and > 100 µM	1.89 µM and 0.294 µM	8.23 µM and 3.73 µM	3.67 µM and 3.89 µM	36.1 µM and > 100 µM	2.78 µM and 2.93 µM	44.5 µM and > 100 µM	6.92 µM and 7.73 µM	35.1 µM and > 100 µM	2.65 µM and 1.88 µM	11.6 µM and 7.46 µM	7.95 µM and 5.22 µM	> 100 µM	1.94 µM and 1.58 µM	19 µM and 6.49 µM
C=C1C(=O)O[C@H]2[C@H]1CC/C(CNS(=O)(=O)c1cccc3ccccc13)=C\CC[C@@]1(C)O[C@@H]21	1.19 µM	2.56 µM	1.73 µM	3.49 µM	13.4 µM	27.9 µM	1.11 µM	2.8 µM	1.45 µM	2.93 µM	2.48 µM	9.12 µM	1.26 µM	2.87 µM	1.95 µM	3.98 µM	0.713 µM	2.26 µM	1.45 µM	2.94 µM
O=P1(O)c2ccccc2Nc2cc(C(F)(F)F)ccc21		> 100 µM		> 100 µM		> 100 µM		> 100 µM		> 100 µM		> 100 µM		> 100 µM		> 100 µM		> 100 µM		> 100 µM
C[CH2][Sn]([Cl])([Cl])[CH2]C	24.1 µM	58.5 µM	19.1 µM	34.8 µM	> 100 µM	> 100 µM	19.7 µM	36.2 µM	17.5 µM	33.1 µM	19.9 µM	41.4 µM	17.5 µM	32.7 µM	45.5 µM	> 100 µM	20.8 µM	39.8 µM	97.8 µM	> 100 µM
CNc1nc(N(C)C)nc(N(C)C)n1	> 100 µM and 1900 µM	> 100 µM and 3610 µM	> 100 µM and 1780 µM	> 100 µM and 4010 µM	> 100 µM and 970 µM	> 100 µM and 1890 µM	> 100 µM and 277 µM	> 100 µM and 809 µM	> 100 µM and 901 µM	> 100 µM and 5150 µM	> 100 µM and 650 µM	> 100 µM and 1830 µM	> 100 µM and 975 µM	> 100 µM and 3070 µM	> 100 µM and 1130 µM	> 100 µM and 2840 µM	> 100 µM and 1870 µM	> 100 µM and 4030 µM	> 100 µM and 828 µM	> 100 µM and 3250 µM
COc1cc([C@@H]2OC(=O)C3C2C(=O)O[C@H]3c2cc(OC)c(OC)c(OC)c2)cc(OC)c1OC (stereo not given in full)		> 100 µM		> 100 µM		> 100 µM		> 100 µM		> 100 µM		> 100 µM		> 100 µM		> 100 µM		> 100 µM		> 100 µM
C[CH2][Sn]([CH2]C)([O]C(=O)c1cccc(F)c1)[O][Sn]([CH2]C)([CH2]C)[O]C(=O)c1cccc(F)c1	18.7 µM	32.7 µM	18.3 µM	32.2 µM	37.3 µM	> 100 µM	16.5 µM	30.1 µM	15.9 µM	29.6 µM	16.6 µM	30.8 µM	14.5 µM	27.7 µM	31.7 µM	> 100 µM	17.2 µM	30.9 µM	49.8 µM	> 100 µM
Clc1ccc(SCCCCCCCCCCSc2ccc(Cl)cc2)cc1		> 73.5 µM		> 100 µM		> 100 µM		> 100 µM		> 100 µM		> 100 µM		> 100 µM		> 69.3 µM		70.9 µM		> 100 µM
O=C(NCP(=O)(O)O)c1cccnc1		> 100 µM		> 100 µM		> 100 µM		> 100 µM		> 100 µM		> 100 µM		> 100 µM		> 100 µM		> 100 µM		> 100 µM
C=CC(=O)Nc1cccc(C)c1Nc1ncc2cc(-c3c(Cl)c(OC)cc(OC)c3Cl)ccc2n1	7.01 µM	> 100 µM	4.17 µM	36.7 µM	8.86 µM	50 µM	6.99 µM	36.8 µM	2.33 µM	14.1 µM	9.31 µM	34.2 µM	1.3 µM	4.59 µM	2.61 µM	9.63 µM	3.9 µM	39.5 µM	3.66 µM	61.5 µM
CC1(C)C2C/C(=C\c3ccccc3)C(=O)C1C2 (stereo not given)		> 100 µM		> 100 µM		> 100 µM		> 100 µM		> 100 µM		> 100 µM		> 100 µM		> 100 µM		> 100 µM		> 100 µM
COc1cc(C(=O)CC2(O)C(=O)Nc3c(Cl)cc(Cl)cc32)ccc1O (stereo not given)		> 100 µM		83.5 µM		> 100 µM		> 100 µM		> 100 µM		> 100 µM		> 100 µM		> 100 µM		> 100 µM		> 100 µM
CC1=C(C(=O)Nc2ccc(F)c(Cl)c2)C(c2cccc(Oc3ccccc3)c2)NC(=O)N1 (stereo not given)	15.1 µM	28.4 µM	14.2 µM	29.6 µM	15.4 µM	29.2 µM	12 µM	24.9 µM	15.4 µM	28.7 µM	15.4 µM	28.8 µM	14.4 µM	32.1 µM	13.2 µM	26.5 µM	18.2 µM	38.2 µM	12.2 µM	26 µM
CCOC(=O)NC(=O)c1cn(CCN2CCN(C(=O)NCCCCCCNC(=O)N3CCN(CCn4cc(C(=O)NC(=O)OCC)c(=O)n(CCN(CC)CC)c4=O)CC3)CC2)c(=O)n(CCC(CC)CC)c1=O		> 100 µM		> 100 µM		> 100 µM		> 100 µM		> 100 µM		> 100 µM		> 100 µM		> 100 µM		> 100 µM		> 100 µM
OC(CNc1ccnc2cc(Cl)ccc12)CNC1CCCCC1 (stereo not given)	6.06 µM	19.4 µM	1.69 µM	3.31 µM	12.3 µM	26.3 µM	1.42 µM	7.12 µM	4.57 µM	16.7 µM	15.9 µM	41 µM	2.5 µM	8.72 µM	1.77 µM	3.34 µM	4.79 µM	18.3 µM	2.22 µM	11 µM
CC(=O)c1c[nH]cc1CO		> 10 µM		> 10 µM		> 10 µM		> 10 µM		> 10 µM		> 10 µM		> 10 µM		> 10 µM		> 10 µM		> 10 µM
NC(CCSC(F)F)C(=O)O (stereo not given)		> 100 µM		> 100 µM		> 100 µM		> 100 µM		> 100 µM		> 100 µM		> 100 µM		> 100 µM		> 100 µM		> 100 µM
CCOC1C=CCCO1 (stereo not given)		> 100 µM		> 100 µM		> 100 µM		> 100 µM		> 100 µM		> 100 µM		> 100 µM		> 100 µM		> 100 µM		38.8 µM
OC(CNC1CCCC1)Cn1c2ccccc2c2ccccc21 (stereo not given)	39.6 µM	> 100 µM	> 100 µM	> 100 µM	18.9 µM	42.6 µM	14.9 µM	34.7 µM	> 100 µM	> 100 µM	28.4 µM	83.7 µM	16.3 µM	52.5 µM	> 100 µM	> 100 µM	> 100 µM	> 100 µM	97.2 µM	> 100 µM
N#CC1=C(N)Oc2c(sc3c(F)cccc23)C1c1ccc(F)cc1 (stereo not given)	0.752 µM	16.1 µM	2.83 µM	13.2 µM	0.76 µM	19.2 µM	2.36 µM	13.4 µM	0.727 µM	12.2 µM	1.45 µM	14.8 µM	1.07 µM	6.31 µM	0.657 µM	14.3 µM	0.531 µM	16.3 µM	1.27 µM	12.1 µM
C=C1CC[C@@H]2[C@](C)(COC(C)=O)[C@H](OC(C)=O)CC[C@@]2(C)[C@@H]1C/C=C1/C(=O)OC[C@H]1OC(C)=O	1.71 µM	3.22 µM	3.37 µM	11.4 µM	4.4 µM	21.4 µM	13.2 µM	26.4 µM	1.42 µM	2.85 µM	6.22 µM	23 µM	1.95 µM	4.13 µM	9.5 µM	22.4 µM	2.29 µM	5.85 µM	1.91 µM	3.89 µM
CN(C)c1ccc(O)c2c1C[C@H]1C[C@H]3[C@H](N(C)C)C(=O)C(C(N)=O)=C(O)[C@@]3(O)C(=O)C1=C2O	4.09 µM	> 100 µM	5.51 µM	20.5 µM	4.01 µM	71.5 µM	3.6 µM	26.9 µM	3.64 µM	31.9 µM	4.95 µM	39.7 µM	4.01 µM	69.7 µM	3.38 µM	14.7 µM	5.84 µM	> 100 µM	3.65 µM	79.8 µM
CN1CCn2c(c(Sc3ccc(C(=O)NO)cc3)c3ccccc32)C1=O	2.63 µM	8.72 µM	1.69 µM	3.87 µM	1.88 µM	3.87 µM	1.67 µM	3.53 µM	1.78 µM	3.66 µM	1.35 µM	4.36 µM	1.62 µM	3.17 µM	1.7 µM	3.15 µM	1.86 µM	5.14 µM	3.1 µM	13.6 µM
COc1cc(/C=C2/C(=O)NC(Cc3cc(OC)c(OC)c(C)c3OC)C(=O)N2Cc2ccccc2)c(OC)c(C)c1OC (stereo not given)		> 100 µM		35 µM		> 100 µM		71.9 µM		> 100 µM		> 100 µM		> 100 µM		> 100 µM		> 100 µM		> 100 µM
COC1=CC(=O)[C@]2(C)[C@H](C1=O)C(C)[C@H]2c1ccccc1 (stereo not given in full)		> 100 µM		> 100 µM		> 100 µM		> 100 µM		> 100 µM		> 100 µM		> 100 µM		> 100 µM		> 100 µM		> 100 µM
COCCNC(=O)c1ccc(-c2nc3ccc4[nH]ncc4c3c3c2CCCC3)cc1	1.14 µM	57.7 µM	2.83 µM	15 µM	0.969 µM	39.5 µM	1.59 µM	78.9 µM	2.88 µM	> 100 µM	2.41 µM	31.1 µM	0.498 µM	3.7 µM	3.39 µM	26.3 µM	1.83 µM	13.9 µM	1.58 µM	5.74 µM
CCOc1ccccc1NC(=O)C1=C(C)NC(C)=C(C(=O)Nc2ccccc2OCC)C1c1ccc(NC(C)=O)cc1		> 100 µM		41.1 µM		49 µM		> 100 µM		> 100 µM		> 100 µM		> 100 µM		> 100 µM		> 100 µM		> 100 µM
COc1cc(/C=C/C(=O)c2c(C)n([O-])c3ccc(Cl)cc3[n+]2=O)cc(OC)c1OC	> 100 µM	> 100 µM	> 100 µM	> 100 µM	60.2 µM	> 100 µM	0.0718 µM	3.53 µM	90.2 µM	> 100 µM	50.5 µM	> 100 µM	10.2 µM	30.2 µM	68 µM	> 100 µM	> 100 µM	> 100 µM	1.55 µM	5.47 µM
COC(=O)c1cc2oc(/C=C3\SC(=S)N(NC(C)=O)C3=O)cc2n1Cc1ccccc1	3.68 µM	10.5 µM	5.63 µM	12.6 µM	9.72 µM	20.7 µM	0.196 µM	2.59 µM	0.769 µM	1.6 µM	7.12 µM	16.8 µM	2.81 µM	16.8 µM	2.08 µM	10.7 µM	8.35 µM	39 µM	8.88 µM	> 50 µM
[C-]#[N+]C(C)(C)C[C@H]1CC(C)C2CCC(C)C3([N+]#[C-])CCC(=C)C1[C@H]23 (stereo not given in full)		6.58 µM		0.65 µM		19.3 µM		0.256 µM		0.421 µM		19.6 µM		10.5 µM		5 µM		12.7 µM		8.66 µM
